In patent US9694060B2, “Peptide vaccines based on the EGFRvIII sequence for the treatment of tumors” (The Board of Trustees of the Leland Stanford Junior …, priority 2012, dated 2017):
No end group written: not given here.

Test system: HC2 20d2/c cells, an NIH-3T3 cell line engineered to overexpress EGFRvIII
Assay: tumor regression / survival experiments in mice bearing EGFRvIII-overexpressing tumors
Type: in vivo, NIH Swiss mice
Conditions: for survival / effectiveness compared with Peptide G:KLH: Table 1 experiments; for survival / effectiveness compared with Peptide G:KLH / percent survival compared with Peptide G:KLH: in words; for percent survival compared with Peptide G:KLH: overall survival data (Table 2)
Description: The conjugated peptide vaccines were tested in tumor regression experiments and survival results were compared among animals treating with one of the conjugated peptide vaccines or KLH only.
Additional experiments were performed repeating the experiments described above.
For all experiments, the peptides were synthesized with the sequence as indicated with the cysteine at the carboxy terminus added for the purposes of conjugation. Peptides were then conjugated at a 1:1 w/w ratio to maleimide activated Keyhole Limpet Hemocyanin (KLH) for 24 hours. Following conjugation, the peptide:KLH conjugate was dialyzed against PBS to remove unconjugated peptide
NIH Swiss mice were inoculated subcutaneously in the right hand flank with 2×10^6 HC2 20d2/c cells, an NIH-3T3 cell line engineered to overexpress EGFRvIII. This cell line has been previously used to study anti-tumor responses to SEQ ID NO:2 conjugated to KLH (Moscatello et al., Cancer Res. 57:1419). On the 7th day following inoculation, mice were immunized with 100 μg of conjugated peptide in 100 μl of PBS emulsified with 100 μl of Freund's complete adjuvant. On the 14th day, mice were immunized with 100 μg of peptide in 100 μl of PBS emulsified with 100 μl of Freund's incomplete adjuvant.

[1] = Table 1, first experiments, s.c. tumor, immunized day 7 and day 14 with 100 μg conjugated peptide in Freund's adjuvant
[2] = Table 2, overall survival data compiled after additional repeat experiments, immunized day 7 and day 14 with 100 μg

| Substance | Survival [1] | survival / effectiveness compared with Peptide G:KLH | Survival [2] | percent survival compared with Peptide G:KLH |
| --- | --- | --- | --- | --- |
| LEEKKVNYVVTDHC:KLH (also: conjugated to KLH, site not given here) [Peptide V: KLH] | 70% | better survival rates | 70% | higher percent survival |
| LEEKKANYVVTDHC:KLH (also: conjugated to KLH, site not given here) [Peptide A: KLH] | 90% | better survival rates | 80% | higher percent survival |
| LEEKKPNYVVTDHC:KLH (also: conjugated to KLH, site not given here) [Peptide P: KLH] | 70% | better survival rates | 65% | higher percent survival |
| Keyhole Limpet Hemocyanin [KLH only, reference compound] | 47% | – | 32% | – |
